Source: US20200016159A1, “N3-CYCLICALLY SUBSTITUTED THIENOURACILS AND USE THEREOF” (Bayer Aktiengesellschaft, priority 2016, published 2020)
pIC50: −log10 of the molar value.

Target: T1, human adenosine A2b receptor (Homo sapiens, UniProt P29275)
T1 sequence (P29275 1-332): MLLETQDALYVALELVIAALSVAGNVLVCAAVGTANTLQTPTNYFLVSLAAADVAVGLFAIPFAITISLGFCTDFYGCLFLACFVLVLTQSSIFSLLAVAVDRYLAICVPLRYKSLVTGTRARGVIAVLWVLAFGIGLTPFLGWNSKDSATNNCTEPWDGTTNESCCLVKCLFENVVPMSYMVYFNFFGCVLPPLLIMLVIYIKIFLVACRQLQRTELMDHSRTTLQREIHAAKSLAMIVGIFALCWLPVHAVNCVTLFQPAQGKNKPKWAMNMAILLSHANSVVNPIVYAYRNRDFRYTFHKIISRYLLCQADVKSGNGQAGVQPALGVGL
Test: Cellular in vitro reporter gene test for A2b receptor activity (antagonism of NECA)
Assay type: cell-based
Design: expressed in transfected cells; host or cells: CHO-K1 (Chinese hamster ovary) with CRE-luciferase reporter
Conditions: recombinant CHO-K1 cells, CRE-luciferase reporter, co-incubation with EC50 concentration of NECA, 3 hours
Method in brief: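 CHO-K1 cells expressing recombinant human A2b receptor plus a CRE-driven firefly luciferase reporter. Compounds co-incubated with NECA at its same-day EC50 concentration; luminescence read 3 hours after NECA addition. IC50 values, sometimes means of several determinations rounded to two significant figures.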

Row | SMILES | pIC50
1 | COC(=O)N=C1NCCN1Cc1sc2c(c1C)c(=O)n(C1CC(C)(C)C1)c(=O)n2CCC(F)(F)F [Example 166, Methyl [1-{[3-(3,3-dimethylcyclobutyl)-5-methyl-2,4-dioxo-1-(3,3,3-trifluoropropyl)-1,2,3,4-tetrahydrothieno[2,3-d]pyrimidin-6-yl]methyl}imidazolidin-2-ylidene]carbamate] | 8.33
2 | Cc1c(CN2CCNC(=O)C2=O)sc2c1c(=O)n(C1CC(C)(C)C1)c(=O)n2CCC(F)(F)F [Example 167, 3-(3,3-Dimethylcyclobutyl)-6-[(2,3-dioxopiperazin-1-yl)methyl]-5-methyl-1-(3,3,3-trifluoropropyl)thieno[2,3-d]pyrimidine-2,4(1H,3H)-dione] | 8.28
3 | Cc1c(Cn2nc[nH]c2=O)sc2c1c(=O)n(C1CC(C)(C)C1)c(=O)n2CCC(F)(F)F [Example 168, 3-(3,3-Dimethylcyclobutyl)-5-methyl-6-[(5-oxo-4,5-dihydro-1,2,4-triazol-1-yl)methy]-1-(3,3,3-trifluoropropyl)thieno[2,3-d]pyrimidine-2,4(1H,3H)-dione] | 7.80
4 | COCCn1c(=O)n(C2CC(C)(C)C2)c(=O)c2c(C)c(CN3CCNC3=O)sc21 [Example 169, 3-(3,3-Dimethylcyclobutyl)-1-(2-methoxyethyl)-5-methyl-6-[(2-oxoimidazolidin-1-yl)methyl]thieno[2,3-d]pyrimidine-2,4(1H,3H)-dione] | 7.85
5 | COCCn1c(=O)n(C2CC(C)(C)C2)c(=O)c2c(C)c(CN3CCNC3=NC#N)sc21 [Example 170, [1-{[3-(3,3-Dimethylcyclobutyl)-1-(2-methoxyethyl)-5-methyl-2,4-dioxo-1,2,3,4-tetrahydrothieno[2,3-d]pyrimidin-6-yl]methyl}imidazolidin-2-ylidene]cyanamide] | 8.07
6 | COCCn1c(=O)n(C2CC(C)(C)C2)c(=O)c2c(C)c(CN3CCNC3=NC(=O)OC)sc21 [Example 171, Methyl [1-{[3-(3,3-dimethylcyclobutyl)-1-(2-methoxyethyl)-5-methyl-2,4-dioxo-1,2,3,4-tetrahydrothieno[2,3-d]pyrimidin-6-yl]methyl}imidazolidin-2-ylidene]carbamate] | 7.77
7 | COCCn1c(=O)n(C2CC(C)(C)C2)c(=O)c2c(C)c(CN3CCNC(=O)C3=O)sc21 [Example 172, 3-(3,3-Dimethylcyclobutyl)-6-[(2,3-dioxopiperazin-1-yl)methyl]-1-(2-methoxyethyl)-5-methylthieno[2,3-d]pyrimidine-2,4(1H,3H)-dione] | 7.44
8 | COCCn1c(=O)n(C2CC(C)(C)C2)c(=O)c2c(C)c(Cn3nc[nH]c3=O)sc21 [Example 173, 3-(3,3-Dimethylcyclobutyl)-1-(2-methoxyethyl)-5-methyl-6-[(5-oxo-4,5-dihydro-1H-1,2,4-triazol-1-yl)methyl]thieno[2,3-d]pyrimidine-2,4(1H,3H)-dione] | 7.08
9 | Cc1c(CN2CCNC2=O)sc2c1c(=O)n(C1CC3(CCC3)C1)c(=O)n2CCC(F)(F)F [Example 174, 5-Methyl-6-[(2-oxoimidazolidin-1-yl)methyl]-3-(spiro[3.3]hept-2-yl)-1-(3,3,3-trifluoropropyl)thieno[2,3-d]pyrimidine-2,4(1H,3H)-dione] | 8.55
10 | Cc1c(CN2CCNC2=NC#N)sc2c1c(=O)n(C1CC3(CCC3)C1)c(=O)n2CCC(F)(F)F [Example 175, [1-{[5-Methyl-2,4-dioxo-3-(spiro[3.3]hept-2-yl)-1-(3,3,3-trifluoropropyl)-1,2,3,4-tetrahydrothieno[2,3-d]pyrimidin-6-yl]methyl}imidazolidin-2-ylidene]cyanamide] | 7.74
11 | COC(=O)N=C1NCCN1Cc1sc2c(c1C)c(=O)n(C1CC3(CCC3)C1)c(=O)n2CCC(F)(F)F [Example 176, Methyl [1-{[5-methyl-2,4-dioxo-3-(spiro[3.3]hept-2-yl)-1-(3,3,3-trifluoropropyl)-1,2,3,4-tetrahydrothieno[2,3-d]pyrimidin-6-yl]methyl}imidazolidin-2-ylidene]carbamate] | 8.40
12 | Cc1c(CN2CCNC(=O)C2=O)sc2c1c(=O)n(C1CC3(CCC3)C1)c(=O)n2CCC(F)(F)F [Example 177, 6-[(2,3-Dioxopiperazin-1-yl)methyl]-5-methyl-3-(spiro[3.3]hept-2-yl)-1-(3,3,3-trifluoropropyl)thieno[2,3-d]pyrimidine-2,4(1H,3H)-dione] | 7.77
13 | Cc1c(Cn2nc[nH]c2=O)sc2c1c(=O)n(C1CC3(CCC3)C1)c(=O)n2CCC(F)(F)F [Example 178, 5-Methyl-6-[(5-oxo-4,5-dihydro-1H-1,2,4-triazol-1-yl)methyl]-3-(spiro[3.3]hept-2-yl)-1-(3,3,3-trifluoropropyl)thieno[2,3-d]pyrimidine-2,4(1H,3H)-dione] | 7.59
14 | COCCn1c(=O)n(C2CC3(CCC3)C2)c(=O)c2c(C)c(CN3CCNC3=O)sc21 [Example 179, 1-(2-Methoxyethyl)-5-methyl-6-[(2-oxoimidazolidin-1-yl)methyl]-3-(spiro[3.3]hept-2-yl)thieno[2,3-d]pyrimidine-2,4(1H,3H)-dione] | 8.00
15 | COCCn1c(=O)n(C2CC3(CCC3)C2)c(=O)c2c(C)c(CN3CCNC3=NC#N)sc21 [Example 180, [1-{[1-(2-Methoxyethyl)-5-methyl-2,4-dioxo-3-(spiro[3.3]hept-2-yl)-1,2,3,4-tetrahydrothieno[2,3-d]pyrimidin-6-yl]methyl}imidazolidin-2-ylidene]cyanamide] | 7.89
16 | COCCn1c(=O)n(C2CC3(CCC3)C2)c(=O)c2c(C)c(CN3CCNC3=NC(=O)OC)sc21 [Example 181, Methyl [1-{[1-(2-methoxyethyl)-5-methyl-2,4-dioxo-3-(spiro[3.3]hept-2-yl)-1,2,3,4-tetrahydrothieno[2,3-d]pyrimidin-6-yl]methyl}imidazolidin-2-ylidene]carbamate] | 8.17

The next lines start with the values.

Row | pIC50 | SMILES
17 | 7.57 | COCCn1c(=O)n(C2CC3(CCC3)C2)c(=O)c2c(C)c(CN3CCNC(=O)C3=O)sc21 [Example 182, 6-[(2,3-Dioxopiperazin-1-yl)methyl]-1-(2-methoxyethyl)-5-methyl-3-(spiro[3.3]hept-2-yl)thieno[2,3-d]pyrimidine-2,4(1H,3H)-dione]
18 | 7.15 | COCCn1c(=O)n(C2CC3(CCC3)C2)c(=O)c2c(C)c(Cn3nc[nH]c3=O)sc21 [Example 183, 1-(2-Methoxyethyl)-5-methyl-6-[(5-oxo-4,5-dihydro-1H-1,2,4-triazol-1-yl)methyl]-3-(spiro[3.3]hept-2-yl)thieno[2,3-d]pyrimidine-2,4(1H,3H)-dione]
19 | 8.16 | Cc1c(CN2CCNC2=O)sc2c1c(=O)n(C1CCCC1)c(=O)n2CCC(F)(F)F [Example 184, 3-Cyclopentyl-5-methyl-6-[(2-oxoimidazolidin-1-yl)methyl]-1-(3,3,3-trifluoropropyl)thieno[2,3-d]pyrimidine-2,4(1H,3H)-dione]
20 | 7.80 | Cc1c(CN2CCNC2=NC#N)sc2c1c(=O)n(C1CCCC1)c(=O)n2CCC(F)(F)F [Example 185, [1-{[3-Cyclopentyl-5-methyl-2,4-dioxo-1-(3,3,3-trifluoropropyl)-1,2,3,4-tetrahydrothieno[2,3-d]pyrimidin-6-yl]methyl}imidazolidin-2-ylidene]cyanamide]
21 | 8.10 | COC(=O)N=C1NCCN1Cc1sc2c(c1C)c(=O)n(C1CCCC1)c(=O)n2CCC(F)(F)F [Example 186, Methyl [1-{[3-cyclopentyl-5-methyl-2,4-dioxo-1-(3,3,3-trifluoropropyl)-1,2,3,4-tetrahydrothieno[2,3-d]pyrimidin-6-yl]methyl}imidazolidin-2-ylidene]carbamate]
22 | 7.72 | Cc1c(CN2CCNC(=O)C2=O)sc2c1c(=O)n(C1CCCC1)c(=O)n2CCC(F)(F)F [Example 187, 3-Cyclopentyl-6-[(2,3-dioxopiperazin-1-yl)methyl]-5-methyl-1-(3,3,3-trifluoropropyl)thieno[2,3-d]pyrimidine-2,4(1H,3H)-dione]
23 | 7.00 | Cc1c(Cn2nc[nH]c2=O)sc2c1c(=O)n(C1CCCC1)c(=O)n2CCC(F)(F)F [Example 188, 3-Cyclopentyl-5-methyl-6-[(5-oxo-4,5-dihydro-1H-1,2,4-triazol-1-yl)methyl]-1-(3,3,3-trifluoropropyl)thieno[2,3-d]pyrimidine-2,4(1H,3H)-dione]
24 | 7.40 | COCCn1c(=O)n(C2CCCC2)c(=O)c2c(C)c(CN3CCNC3=O)sc21 [Example 189, 3-Cyclopentyl-1-(2-methoxyethyl)-5-methyl-6-[(2-oxoimidazolidin-1-yl)methyl]thieno[2,3-d]pyrimidine-2,4(1H,3H)-dione]
25 | 7.55 | COCCn1c(=O)n(C2CCCC2)c(=O)c2c(C)c(CN3CCNC3=NC#N)sc21 [Example 190, [1-{[3-Cyclopentyl-1-(2-methoxyethyl)-5-methyl-2,4-dioxo-1,2,3,4-tetrahydrothieno[2,3-d]pyrimidin-6-yl]methyl}imidazolidin-2-ylidene]cyanamide]
26 | 7.74 | COCCn1c(=O)n(C2CCCC2)c(=O)c2c(C)c(CN3CCNC3=NC(=O)OC)sc21 [Example 191, Methyl [1-{[3-cyclopentyl-1-(2-methoxyethyl)-5-methyl-2,4-dioxo-1,2,3,4-tetrahydrothieno[2,3-d]pyrimidin-6-yl]methyl}imidazolidin-2-ylidene]carbamate]
